# In patent US20240335465A1 (University of Virginia Patent Foundation, priority 2021, published 2024):
# Tests used:
# DDR signaling [1] = assay: DDR signaling immunoblot in HEK293 cells; format: cell-based, human; conditions: HEK293, 2 μM KU-55933 1 hr, cGAMP 16 hours
# ATM = ATM (Homo sapiens, UniProt Q13315); conditions: recombinant ATM and TBK1; 25 μM ATM inhibitor, 10 μM TBK1 inhibitor
# Description: 2× laemmli buffer was added and the mixture which was then incubated at 98° C. for 10 mins. The protein mixtures were separated on a 7.5% SDS/PAGE gel and immunoblotted for anti phospho-ATM (Ser1981) antibody to assess phosphorylation status if ATM. To test the effect of inhibitors on recombinant TBK1 mediated ATM phosphorylation, 25 μM ATM inhibitor, and 10 μM TBK1 inhibitor and was pre-incubated with recombinant ATM or recombinant TBK1 (TBK1 inhibitor) before setting up the kinase assay as described above.
# cell cycle progression = assay: Cell cycle analysis by flow cytometry (BrdU, propidium iodide); format: cell-based, human
# Description: Cells were washed with cold PBS and resuspended in 0.5 ml PBS to achieve a single cell suspension. Cells were fixed in a tube containing 4.5 ml 70% ethanol kept at 4° C. overnight. Cells were collected by centrifugation at 500 g for 5 minutes and washed twice with PBS. Washed cells were then stained with 1 ml of freshly prepared staining solution containing propidium iodide (10 μg/ml), DNase-free RNaseA (100 μg/ml), and 0.1% (v/v) Triton X-100 before being subjected to flow cytometry measurement. To determine percentage of cell population in various cell cycle stage, ˜10,000-30,000 cells were acquired on an Attune NxT cytometer and analyzed using FCS Express software. Cell cycle analysis was performed on propidium iodide stained cells and single cell events were determined by gating on the area against the width of the propidium iodide pulse signal. DNA cell cycle modeling and fit was performed using the Multicycle AV plugin (Phoenix Flow Systems).
# Cells were fixed and stained to detect BrdU incorporation by flow cytometry following the manufacturer's protocol (FITC BrdU Flow Kit, BD Biosciences, Cat #559619).
# HEK293-TrLR cells = assay: HDR and NHEJ assay using Traffic Light Reporter; format: cell-based, human
# Description: TrLR-integrated HEK293 cells were selected through exposure to 5 μg/ml puromycin for 2 weeks. […] 8 hours following this procedure, cells were transfected with pCVL SFFV d14GFP Donor (Addgene Cat #31475), pCBASceI (Addgene Cat #26477)), or Donor+SceI using Lipofectamine 3000. 72 hours post-transfection, cells were trypsinized, collected, and analyzed with an Attune NxT flow cytometer (Thermofisher). To quantify the DNA repair events, ˜10,000-30,000 cells were acquired on an Attune NxT cytometer and analyzed using FCS Express software. Single cell events were determined by gating on the area against the width of the forward scatter pulse signal. Debris removal was performed by excluding events with very low forward and side scatter. For determining % of GFP and mCherry positive cells we established positive and negative populations using mock transfections as negative controls and GFP or mCherry transfected samples as Fluorescence Minus One controls.
# DDR signaling [2] = assay: DDR signaling immunoblotting in THP1 cells; conditions: for DDR induction in cells lacking STING or TBK1: STING−/− or shTBK1 cells
# DDR signaling [3] = assay: DDR signaling immunoblotting in primary mouse embryonic fibroblasts; conditions: for DDR signaling (γH2AX): cGAS−/− and cGAS GS198AA primary MEFs vs WT
# Crassostrea virginica = assay: DDR in oysters after adductor muscle injection; format: in vivo; conditions: hemocytes; cGAMP 25 μg/50 gm, doxorubicin 1 μg/50 gm oyster weight, 16 hours
# Description: Oysters: Wild adult eastern oysters (Crassostrea virginica) of both male and female sexes ranging from 2 cm-7 cm in length (1 to 3 years in age) were collected from a natural oyster reef on Virgnia's Eastern Shore. Following collection, the diploid oysters were placed on ice and transported approximately 3 h to the University of Virginia main campus in Charlottesville, VA. There they were stored in an aerated aquarium containing water supplemented with Instant Ocean® Aquarium Sea Salt (50 gm/l). […] Treated oysters were kept at 4° C. in the dark for 16 hours after which they were shucked, had their hemolymph/tissues harvested for analysis by western blotting, and dead oyster and shell were disposed of.
# cGAS = assay: HA-cGAS co-immunoprecipitation in HA-cGAS-reconstituted cGAS−/− MEFs; format: cell-based, mouse; conditions: doxorubicin 2 μM 6 hours
# Description: Immunoprecipitation: Cells were treated as indicated and were lysed in RIPA buffer. Co-immunoprecipitation experiments were conducted using Dynabeads™ Protein G Immunoprecipitation Kits (Thermo Fisher, Catalogue #10007D) as per the manufacturer's protocol. 50 μl of Dynabead slurry was added to a microfuge tube and placed on a magnet to separate the solution. Beads were washed in 200 μl PBS with 0.1% Tween20 (3 times) before 5 μg antibody along with […] protein lysate diluted in PBS-tween20 to a final volume of 500 μl was added to the beads and incubated overnight at 4° C. with rotation. Beads were collected by magnetic separation and washed 3 times with wash buffer (10 mM Tris; adjust to pH 7.4, 1 mM EDTA; pH 8.0, 150 mM NaCl). Finally, bead-bound proteins were eluted by boiling in 1× Laemmli buffer and samples analyzed by western blotting.
# cGAMP = assay: 2′3′-cGAMP ELISA in THP1 cells; format: cell-based, human; conditions: WT THP1, 1 μM Doxorubicin, 1 hr
# γH2AX = γH2AX immunofluorescence (human RPE, THP1 cells); format: cell-based
# Description: Immunofluorescence Staining: 16,500 adherent cells/cm^2 were plated on a gelatin coated 8-chamber slide (VWR, Catalogue #62407-296) and treated as indicated. Media was removed and cells were washed with 1×PBS with Ca^2+/Mg^2+ and fixed with 4% PFA for 20 minutes. Fixed cells were permeabilized with PBS+0.1% Triton-X and washed 3 times with PBS+0.1% Tween20. After treatment as indicated, non-adherent THP1 cells were collected by centrifugation, washed in cold PBS and fixed in PFA. Post-fixation, they were washed with PBS, spotted on gelatin coated “PTFE” Printed Slides (Electron Microscopy Sciences, Cat #63424-06), and air-dried. For γH2AX staining, permeabilized cells were blocked in Serum-free DAKO Protein Block (Agilent, Catalogue #X0909) for 1 hr at room temperature. Cells were incubated in primary antibody (γH2AX, 1:500; anti-HA, 1:100; Table 1) in DAKO antibody diluent at 4° C. overnight on a rocker platform. U2OS-STING cells undergoing Rad51 staining were first fixed in methanol for 20 minutes in −20° C., blocked for 1 hr with donkey block (2% normal donkey serum, 1% BSA, 0.1% Triton X 100, 0.05% Tween20, 0.05% Sodium Azide in PBS), then finally incubated in an anti-Rad51 antibody overnight at 4° C. (Bio-academia Cat #70-001, 1:6000 in 5% milk in TBST). For RPA70 staining, cells were fixed in 4% PFA at room temperature for 20 minutes and blocked in Cell Signaling blocking buffer (1×PBS/5% normal donkey serum/0.3% Triton™ X-100) for 1 hr in room temperature then incubated in an RPA70 antibody (Cell Signaling Cat #2267, 1:50 in blocking buffer) overnight at 4° C. Primary antibody was washed 3 times and incubated with secondary antibodies (Invitrogen, Alexa 555, 488) for 1 hr at room temperature. Coverslips were mounted on the cells with ProLong™ Gold Antifade mounting media with DAPI (Thermofisher, Catalogue #P36935). All images were obtained by confocal microscopy (Nikon, C2).
# cGAS, STING, and TBK1 = conditions: doxorubicin 2 μM 6 hours; cGAMP 16 hours
# Description: Cell Fractionation: THP1 cells were treated as indicated, then nuclear and cytoplasmic fractions were isolated using NE-PER™ Nuclear and Cytoplasmic Extraction Reagents (Thermo Scientific, Catalogue #78833) following the manufacturer's protocol. 20 g of cytoplasmic and nuclear proteins were used for immunoblotting.
# Nematostella vectensis = assay: DDR in starlet sea anemones; format: in vivo; conditions: whole animals; cGAMP in digitonin solution 10 minutes; doxorubicin 2 μM; 16 hours
# From the text: Starlet sea anemones: Wild type, laboratory maintained, Self-sustaining Nematostella vectensis culture containing of 3-6 months old male and female animals (Putnam et al., 2007) was a kind gift from Timothy J. Jegla (Penn State University Department of Biology). They were maintained in 6-well plates containing water with Instant Ocean® Aquarium Sea Salt (50 gm/l) and fed brine shrimp. […] Permeabilization solution was removed and the animals returned to maintenance sea salt water. Doxorubicin was added to the maintenance sea salt water to a final concentration of 2 μM. 16 hours post treatment. N. vectensis were collected and washed once with cold PBS before the addition of 200 μl RIPA buffer. Samples were homogenized by sonication and centrifuged at 4° C. to remove debris. Soluble lysates were quantified for protein analysis by western blot.
# PARP = PARP activity assay; format: cell-based, human
# Description: Post cGAMP treatment, cells were collected by centrifugation and washed with cold PBS once and resuspended in Cell Extraction Buffer. PARP activity was measured using the Chemiluminescent Assay Kit (R&D, Catalog Number: 4685-096-K) following manufacturer's protocol.
# PARylation = assay: PolyADP-ribosylation (PARylation) immunoblot; format: cell-based, human; conditions: THP1, 2 mM NAM 18 hours, 250 μM H2O2 10 minutes
# From the text: Cells were collected by centrifugation, washed once with ice-cold PBS, lysed in RIPA buffer and analyzed by western blot to detect PARylation using pADPr Antibody (Santa Cruz sc-56198).
# NAD^+ = assay: NAD+ quantification; format: cell-based, human; conditions: THP1, 2 mM, 4 mM and 8 mM NAM, 18 hours
# U2OS-STING cells = assay: RAD51 and RPA70 foci in EdU+ U2OS-STING cells; format: cell-based, human; conditions: EdU-positive S-phase cells, Camptothecin 5 μM 16 hours
# Description: Immunofluorescence Staining: 16,500 adherent cells/cm^2 were plated on a gelatin coated 8-chamber slide (VWR, Catalogue #62407-296) and treated as indicated. Media was removed and cells were washed with 1×PBS with Ca^2+/Mg^2+ and fixed with 4% PFA for 20 minutes. Fixed cells were permeabilized with PBS+0.1% Triton-X and washed 3 times with PBS+0.1% Tween20. After treatment as indicated, non-adherent THP1 cells were collected by centrifugation, washed in cold PBS and fixed in PFA. Post-fixation, they were washed with PBS, spotted on gelatin coated “PTFE” Printed Slides (Electron Microscopy Sciences, Cat #63424-06), and air-dried. For γH2AX staining, permeabilized cells were blocked in Serum-free DAKO Protein Block (Agilent, Catalogue #X0909) for 1 hr at room temperature. Cells were incubated in primary antibody (γH2AX, 1:500; anti-HA, 1:100; Table 1) in DAKO antibody diluent at 4° C. overnight on a rocker platform. […]
# EdU incorporated cells were detected by confocal microscopy after Click-iT® EdU labeling following the manufacturer's protocol (Click-iT™ EdU Alexa Fluor™ 594 Imaging Kit, Thermo Fisher Cat #C10339).
# Sequence of ATM (Q13315 whole entry): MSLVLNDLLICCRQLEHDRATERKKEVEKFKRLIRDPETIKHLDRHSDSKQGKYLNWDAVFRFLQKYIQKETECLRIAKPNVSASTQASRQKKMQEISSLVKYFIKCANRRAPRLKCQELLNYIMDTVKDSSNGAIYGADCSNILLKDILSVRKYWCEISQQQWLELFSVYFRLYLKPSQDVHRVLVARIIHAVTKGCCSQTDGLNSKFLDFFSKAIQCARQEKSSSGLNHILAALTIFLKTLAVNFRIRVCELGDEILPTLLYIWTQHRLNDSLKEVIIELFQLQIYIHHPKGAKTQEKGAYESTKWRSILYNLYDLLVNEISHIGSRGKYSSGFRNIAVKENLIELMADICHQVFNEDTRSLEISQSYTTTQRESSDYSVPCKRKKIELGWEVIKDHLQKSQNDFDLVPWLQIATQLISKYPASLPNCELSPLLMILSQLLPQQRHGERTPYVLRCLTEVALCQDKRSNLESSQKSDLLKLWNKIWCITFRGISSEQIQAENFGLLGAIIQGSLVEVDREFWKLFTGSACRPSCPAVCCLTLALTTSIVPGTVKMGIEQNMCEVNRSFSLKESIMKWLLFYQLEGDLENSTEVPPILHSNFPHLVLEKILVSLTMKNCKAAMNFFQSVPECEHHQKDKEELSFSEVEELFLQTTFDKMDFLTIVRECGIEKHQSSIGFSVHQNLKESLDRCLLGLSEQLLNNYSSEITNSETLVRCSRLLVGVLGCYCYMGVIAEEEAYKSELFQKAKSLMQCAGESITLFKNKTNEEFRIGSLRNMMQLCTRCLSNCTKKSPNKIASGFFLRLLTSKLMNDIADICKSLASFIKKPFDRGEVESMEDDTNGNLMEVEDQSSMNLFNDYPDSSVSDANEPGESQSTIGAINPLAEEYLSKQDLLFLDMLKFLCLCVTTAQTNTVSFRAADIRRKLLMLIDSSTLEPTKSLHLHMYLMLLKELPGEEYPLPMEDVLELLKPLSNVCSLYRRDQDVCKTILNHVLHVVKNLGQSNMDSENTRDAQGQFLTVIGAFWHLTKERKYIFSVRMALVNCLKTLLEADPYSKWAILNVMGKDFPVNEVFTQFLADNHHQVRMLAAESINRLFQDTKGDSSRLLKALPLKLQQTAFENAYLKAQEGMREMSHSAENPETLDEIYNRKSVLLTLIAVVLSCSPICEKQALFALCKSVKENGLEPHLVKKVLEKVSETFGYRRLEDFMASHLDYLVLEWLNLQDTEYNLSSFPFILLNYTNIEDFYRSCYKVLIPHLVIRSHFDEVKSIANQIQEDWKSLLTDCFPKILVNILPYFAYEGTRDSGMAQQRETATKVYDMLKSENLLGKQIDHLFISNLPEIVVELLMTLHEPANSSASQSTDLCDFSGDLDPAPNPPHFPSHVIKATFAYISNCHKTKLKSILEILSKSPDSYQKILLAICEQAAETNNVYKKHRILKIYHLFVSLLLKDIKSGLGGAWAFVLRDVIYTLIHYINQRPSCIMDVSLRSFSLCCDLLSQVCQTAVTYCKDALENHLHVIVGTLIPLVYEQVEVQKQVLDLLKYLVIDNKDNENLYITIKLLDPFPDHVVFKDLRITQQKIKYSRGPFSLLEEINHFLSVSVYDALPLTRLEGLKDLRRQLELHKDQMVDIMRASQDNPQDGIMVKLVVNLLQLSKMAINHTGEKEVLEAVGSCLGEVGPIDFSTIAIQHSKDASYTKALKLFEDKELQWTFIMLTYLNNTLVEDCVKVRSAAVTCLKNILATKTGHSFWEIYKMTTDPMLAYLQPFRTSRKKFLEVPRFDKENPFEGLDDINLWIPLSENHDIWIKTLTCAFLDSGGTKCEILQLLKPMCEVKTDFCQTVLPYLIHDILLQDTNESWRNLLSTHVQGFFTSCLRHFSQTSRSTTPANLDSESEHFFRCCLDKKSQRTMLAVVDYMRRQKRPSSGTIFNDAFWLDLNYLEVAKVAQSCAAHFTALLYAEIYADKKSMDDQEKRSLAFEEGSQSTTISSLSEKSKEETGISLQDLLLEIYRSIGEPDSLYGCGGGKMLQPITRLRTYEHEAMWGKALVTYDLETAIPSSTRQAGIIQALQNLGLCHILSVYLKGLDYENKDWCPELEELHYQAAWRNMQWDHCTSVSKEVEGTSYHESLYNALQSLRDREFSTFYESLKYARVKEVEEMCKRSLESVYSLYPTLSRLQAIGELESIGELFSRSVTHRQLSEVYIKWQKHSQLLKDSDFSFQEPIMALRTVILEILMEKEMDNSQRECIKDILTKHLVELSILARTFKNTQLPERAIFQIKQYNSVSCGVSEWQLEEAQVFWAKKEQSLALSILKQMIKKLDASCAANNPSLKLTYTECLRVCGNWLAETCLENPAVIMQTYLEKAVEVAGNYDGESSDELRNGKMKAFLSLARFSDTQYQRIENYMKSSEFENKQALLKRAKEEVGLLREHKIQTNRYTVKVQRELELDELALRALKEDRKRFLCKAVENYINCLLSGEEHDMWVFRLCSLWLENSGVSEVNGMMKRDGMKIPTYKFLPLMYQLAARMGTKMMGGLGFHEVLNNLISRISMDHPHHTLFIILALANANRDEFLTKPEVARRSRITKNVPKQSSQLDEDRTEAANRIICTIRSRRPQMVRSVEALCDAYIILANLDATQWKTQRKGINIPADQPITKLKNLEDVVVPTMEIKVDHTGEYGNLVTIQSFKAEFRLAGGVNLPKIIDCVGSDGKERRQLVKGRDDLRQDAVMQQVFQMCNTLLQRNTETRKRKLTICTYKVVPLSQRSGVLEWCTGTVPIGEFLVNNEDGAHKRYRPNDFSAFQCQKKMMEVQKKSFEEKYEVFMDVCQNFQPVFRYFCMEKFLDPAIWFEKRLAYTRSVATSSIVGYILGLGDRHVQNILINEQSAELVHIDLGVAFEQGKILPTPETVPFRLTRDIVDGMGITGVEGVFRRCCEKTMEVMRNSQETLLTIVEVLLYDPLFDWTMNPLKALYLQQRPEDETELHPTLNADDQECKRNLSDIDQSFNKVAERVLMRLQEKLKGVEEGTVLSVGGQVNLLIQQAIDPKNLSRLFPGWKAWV
molecule,measurement,setting,value
O=c1cc(-c2cccc3c2Sc2ccccc2S3)oc(N2CCOCC2)c1 [KU55933],effect on cGAMP-induced γH2AX and pCHK2,DDR signaling [1],suppressed the ability of cGAMP to induce γH2AX and pCHK2
same,ATM phosphorylation on Ser1981,ATM,suppressed
same,effect of ATM inhibitor on cGAMP-induced G1 arrest,"cell cycle progression; WT THP1, 25 μM KU-55933, cGAMP 24 hours",suppressed the ability of cGAMP to induce γH2AX and pCHK2 (FIG. 9A) and to induce G1 arrest
same,HDR under ATM inhibition alone,HEK293-TrLR cells; 25 μM KU-55933,impeded HDR in its own right
O=C(NCCCNc1nc(Nc2cccc(CN3CCOCC3)c2)ncc1C1CC1)C1CCC1 [MRT67307],ATM phosphorylation on Ser1981,ATM,suppressed
same,"effect on cGAMP-induced phosphorylation of ATM (S1981), CHK2, and H2AX","DDR signaling [2]; THP1 pretreated with 2 μM TBK1 inhibitor, cGAMP 16 hours","suppressed cGAMP-induced phosphorylation of ATM (S1981), CHK2, and H2AX"
CC[C@@]1(O)C(=O)OCc2c1cc1n(c2=O)Cc2cc3ccccc3nc2-1 [camptothecin],DDR signaling (γH2AX),DDR signaling [3],suppressed both in cGAS^−/− and cGAS^(GS198AA) primary MEFs
same,DDR induction in cells lacking STING or TBK1,DDR signaling [2],abrogated
same,"phosphorylation of H2AX, ATM, and CHK2","DDR signaling [2]; cGAS−/− THP1, camptothecin 2 μM 4 hours",all suppressed
COc1cccc2c1C(=O)c1c(O)c3c(c(O)c1C2=O)C[C@@](O)(C(=O)CO)C[C@@H]3O[C@H]1C[C@H](N)[C@H](O)[C@H](C)O1 [doxorubicin],DDR signaling (γH2AX),DDR signaling [3],suppressed both in cGAS^−/− and cGAS^(GS198AA) primary MEFs
same,TBK1 phosphorylation (pTBK1),Crassostrea virginica,TBK1 phosphorylation
same,γH2AX,Crassostrea virginica,elevated levels of γH2AX
same,cGAS association with ATM,cGAS,detected no such interactions
same,cGAS complex with γH2AX,cGAS,nuclear translocated cGAS was found in a complex with γH2AX
same,cGAMP production,cGAMP,reacted by producing cGAMP
same,γH2AX foci in cGAS- and STING-deficient cells,γH2AX; doxorubicin-treated THP1 cells,significant reduction in the intensity of γH2AX foci
same,γH2AX staining pattern,"γH2AX; human RPE cells, doxorubicin 2 hours, cGAMP or HT-DNA 6 hours",catalyzed the formation of γH2AX foci characteristic of DSB induction
same,"nuclear enrichment of TBK1, pTBK1, STING","cGAS, STING, and TBK1",promoted nuclear enrichment of TBK1 but not STING
same,nuclear enrichment of cGAS,"cGAS, STING, and TBK1",nuclear enrichment of cGAS
same,DDR induction in cells lacking STING or TBK1,DDR signaling [2],abrogated
same,TBK1 phosphorylation (pTBK1),Nematostella vectensis,TBK1 phosphorylation
same,γH2AX,Nematostella vectensis,elevated levels of γH2AX
NC(=O)c1cccnc1 [nicotinamide],effect on cGAMP-driven inhibition of cellular PARP enzymatic activity,"PARP; THP1, 2 mM, 4 mM and 8 mM NAM, 18 hours",overcame cGAMP-driven inhibition of cellular PARP enzymatic activity
same,effect on cGAMP-driven inhibition of HDR,HEK293-TrLR cells; 2 mM and 4 mM NAM,abrogated cGAMP-driven inhibition of protein PARylation and HDR
same,effect on cGAMP-driven inhibition of protein PARylation,PARylation,abrogated cGAMP-driven inhibition of protein PARylation and HDR
same,cellular NAD^+ levels with nicotinamide supplementation,NAD^+,Boosting cellular NAD^+ levels
CNCc1ccc(-c2[nH]c3cc(F)cc4c3c2CCNC4=O)cc1 [rucaparib],DNA damage-induced RAD51 and RPA foci formation,U2OS-STING cells,suppressed DNA damage-induced RAD51 and RPA foci formation in EdU-positive S-phase cells
same,PARP enzymatic activity in cell lysates,"PARP; THP1, cGAMP 6 hours, Rucaparib 10 μM, 6 hr",lower PARP enzymatic activity
same,abundance of S/G2-phase cells,"cell cycle progression; THP1 10 μM Rucaparib (propidium iodide), U2OS-STING (EdU)",causes increased abundance of S/G2-phase cells
same,HDR,HEK293-TrLR cells; 1 μM PARP inhibitor (Rucaparib),significantly reduced HDR in TrLR reporter cells
Pam3CSK4,DDR activation (γH2AX),"DDR signaling [3]; WT primary MEF, Pam3CSK4 500 ng/ml 6 hours, HT-DNA 4 ug/6-well 6 hours, 5′ppp-dsRNA 0.5 μg/6 well 6 hours, cGAMP 16 hours",failed to stimulate the DDR
